One may read the EC50 as the concentration at which the effect is half-maximal. By IC50 is commonly meant the concentration that gives 50% inhibition.

Activity calls are given as the source filed them.

Here are results for five molecules from ChEMBL document CHEMBL1201862, “PubChem BioAssay data set” (2004).

Assay [1] has as its target Voltage-dependent T-type calcium channel subunit alpha-1H (Homo sapiens, UniProt O95180). The assay is described as follows: human CACNA1H calcium influx blockade – cell-based, synthetic library set 1, calcium flux (AID 493022). In kind it is functional. (Calcium assays in cells follow changes in intracellular calcium, usually with a dye or a luminescent sensor.)
The next assay concerns the target Hexokinase (Trypanosoma brucei, UniProt Q38C41). The assay is described as follows: Confirmation assay for inhibitors of Trypanosoma brucei hexokinase 1-Analogue-first series. [Related pubchem assays (depositor defined):AID1430, AID1632, AID2516, AID2560, AID2579, AID2600, AID449725, AID492951]. In kind it is functional.
For the next assay, the target named is Mu-type opioid receptor (Homo sapiens, UniProt P35372). The assay is described as follows: SAR Analysis of Antagonists of the MOR Receptor using an Image-Based Assay - Set 3. [Related pubchem assays (depositor defined):AID1777, AID1785, AID1786, AID1966, AID2133, AID2136, AID2284, AID2285, AID2420]. In kind it is functional.
For assay [2], the target named is Delta-type opioid receptor (Homo sapiens, UniProt P41143). The assay is described as follows: SAR Analysis of Antagonists of the DOR Receptor using an Image-Based Assay - Set 3. [Related pubchem assays (depositor defined):AID1777, AID1785]. The class given is functional.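 Further: U2OS cells expressing DOR1 and beta-arrestin GFP stimulated with 100 nM SNC80; imaging of GFP-tagged beta-arrestin moving into spots after receptor activation.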
The target in assay [3] is T1, Neuropeptides B/W receptor type 1 (Homo sapiens, UniProt P48145).
T1 sequence (P48145 whole entry): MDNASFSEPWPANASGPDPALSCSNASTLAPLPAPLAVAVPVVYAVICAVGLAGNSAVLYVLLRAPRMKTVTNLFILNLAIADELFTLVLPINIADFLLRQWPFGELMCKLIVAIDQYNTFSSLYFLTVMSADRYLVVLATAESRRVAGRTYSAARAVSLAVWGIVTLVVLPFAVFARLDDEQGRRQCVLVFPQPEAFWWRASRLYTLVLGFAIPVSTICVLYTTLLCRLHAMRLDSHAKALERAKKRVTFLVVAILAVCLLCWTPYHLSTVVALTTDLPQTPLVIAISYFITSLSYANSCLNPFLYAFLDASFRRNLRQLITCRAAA
The experiment in a line: human NPBW1 receptor blockade, IC50 – cell-based, fluorescence, dose response, late-stage follow-up (AID 463251). In kind it is functional.

The target in assay [4] is Melanin-concentrating hormone receptor 1 (Homo sapiens, UniProt Q99705). The assay is described as follows: Late-stage fluorescence-based counterscreen for antagonists of the G-protein coupled receptor 7 (GPR7): cell-based dose response assay to identify antagonists of the melanin-concentrating hormone receptor 1 (MCHR1). [Related pubchem assays (depositor defined):AID1861, AID1880, AID1952, AID2148, AID2251, AID2257, AID485339]. In kind it is functional. In general terms: A counterscreen serves to expose hits that act by an unwanted route or on another target.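 Further: stimulated with 30 nM MCH peptide agonist.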

Another assay has as its target Nonstructural protein 1 (Influenza A virus, UniProt Q194T2). In kind it is functional, Influenza A virus (A/California/07/2009(H1N1)).

Mu-type opioid receptor, sequence (P35372 whole entry): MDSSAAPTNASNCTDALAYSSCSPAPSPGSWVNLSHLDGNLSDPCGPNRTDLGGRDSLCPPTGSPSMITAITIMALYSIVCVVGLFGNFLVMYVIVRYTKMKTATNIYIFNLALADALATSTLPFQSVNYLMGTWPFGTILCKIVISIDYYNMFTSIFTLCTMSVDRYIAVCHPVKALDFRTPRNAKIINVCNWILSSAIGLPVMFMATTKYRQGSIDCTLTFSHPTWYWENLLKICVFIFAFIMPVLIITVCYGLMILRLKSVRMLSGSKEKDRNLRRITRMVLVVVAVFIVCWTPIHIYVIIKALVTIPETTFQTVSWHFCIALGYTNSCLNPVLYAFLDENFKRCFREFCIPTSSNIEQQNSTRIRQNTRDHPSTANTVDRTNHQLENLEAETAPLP
Delta-type opioid receptor, sequence (P41143 whole entry): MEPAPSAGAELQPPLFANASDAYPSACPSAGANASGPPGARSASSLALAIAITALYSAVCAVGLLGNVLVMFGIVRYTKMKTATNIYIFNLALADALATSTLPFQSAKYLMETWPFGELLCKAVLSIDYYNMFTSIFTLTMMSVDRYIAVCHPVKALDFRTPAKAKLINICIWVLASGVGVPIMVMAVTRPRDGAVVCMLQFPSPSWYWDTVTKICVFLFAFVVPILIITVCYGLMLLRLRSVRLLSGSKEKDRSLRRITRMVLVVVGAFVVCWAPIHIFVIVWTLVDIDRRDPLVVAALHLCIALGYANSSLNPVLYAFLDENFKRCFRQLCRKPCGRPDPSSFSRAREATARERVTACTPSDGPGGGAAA
Nonstructural protein 1, sequence (Q194T2 whole entry): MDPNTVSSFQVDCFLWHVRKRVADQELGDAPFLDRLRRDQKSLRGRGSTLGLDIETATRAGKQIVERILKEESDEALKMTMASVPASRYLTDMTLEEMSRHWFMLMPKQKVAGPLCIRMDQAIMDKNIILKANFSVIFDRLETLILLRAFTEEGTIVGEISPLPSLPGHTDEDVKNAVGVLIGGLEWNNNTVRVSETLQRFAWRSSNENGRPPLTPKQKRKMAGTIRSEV
Voltage-dependent T-type calcium channel subunit alpha-1H, sequence (O95180 whole entry): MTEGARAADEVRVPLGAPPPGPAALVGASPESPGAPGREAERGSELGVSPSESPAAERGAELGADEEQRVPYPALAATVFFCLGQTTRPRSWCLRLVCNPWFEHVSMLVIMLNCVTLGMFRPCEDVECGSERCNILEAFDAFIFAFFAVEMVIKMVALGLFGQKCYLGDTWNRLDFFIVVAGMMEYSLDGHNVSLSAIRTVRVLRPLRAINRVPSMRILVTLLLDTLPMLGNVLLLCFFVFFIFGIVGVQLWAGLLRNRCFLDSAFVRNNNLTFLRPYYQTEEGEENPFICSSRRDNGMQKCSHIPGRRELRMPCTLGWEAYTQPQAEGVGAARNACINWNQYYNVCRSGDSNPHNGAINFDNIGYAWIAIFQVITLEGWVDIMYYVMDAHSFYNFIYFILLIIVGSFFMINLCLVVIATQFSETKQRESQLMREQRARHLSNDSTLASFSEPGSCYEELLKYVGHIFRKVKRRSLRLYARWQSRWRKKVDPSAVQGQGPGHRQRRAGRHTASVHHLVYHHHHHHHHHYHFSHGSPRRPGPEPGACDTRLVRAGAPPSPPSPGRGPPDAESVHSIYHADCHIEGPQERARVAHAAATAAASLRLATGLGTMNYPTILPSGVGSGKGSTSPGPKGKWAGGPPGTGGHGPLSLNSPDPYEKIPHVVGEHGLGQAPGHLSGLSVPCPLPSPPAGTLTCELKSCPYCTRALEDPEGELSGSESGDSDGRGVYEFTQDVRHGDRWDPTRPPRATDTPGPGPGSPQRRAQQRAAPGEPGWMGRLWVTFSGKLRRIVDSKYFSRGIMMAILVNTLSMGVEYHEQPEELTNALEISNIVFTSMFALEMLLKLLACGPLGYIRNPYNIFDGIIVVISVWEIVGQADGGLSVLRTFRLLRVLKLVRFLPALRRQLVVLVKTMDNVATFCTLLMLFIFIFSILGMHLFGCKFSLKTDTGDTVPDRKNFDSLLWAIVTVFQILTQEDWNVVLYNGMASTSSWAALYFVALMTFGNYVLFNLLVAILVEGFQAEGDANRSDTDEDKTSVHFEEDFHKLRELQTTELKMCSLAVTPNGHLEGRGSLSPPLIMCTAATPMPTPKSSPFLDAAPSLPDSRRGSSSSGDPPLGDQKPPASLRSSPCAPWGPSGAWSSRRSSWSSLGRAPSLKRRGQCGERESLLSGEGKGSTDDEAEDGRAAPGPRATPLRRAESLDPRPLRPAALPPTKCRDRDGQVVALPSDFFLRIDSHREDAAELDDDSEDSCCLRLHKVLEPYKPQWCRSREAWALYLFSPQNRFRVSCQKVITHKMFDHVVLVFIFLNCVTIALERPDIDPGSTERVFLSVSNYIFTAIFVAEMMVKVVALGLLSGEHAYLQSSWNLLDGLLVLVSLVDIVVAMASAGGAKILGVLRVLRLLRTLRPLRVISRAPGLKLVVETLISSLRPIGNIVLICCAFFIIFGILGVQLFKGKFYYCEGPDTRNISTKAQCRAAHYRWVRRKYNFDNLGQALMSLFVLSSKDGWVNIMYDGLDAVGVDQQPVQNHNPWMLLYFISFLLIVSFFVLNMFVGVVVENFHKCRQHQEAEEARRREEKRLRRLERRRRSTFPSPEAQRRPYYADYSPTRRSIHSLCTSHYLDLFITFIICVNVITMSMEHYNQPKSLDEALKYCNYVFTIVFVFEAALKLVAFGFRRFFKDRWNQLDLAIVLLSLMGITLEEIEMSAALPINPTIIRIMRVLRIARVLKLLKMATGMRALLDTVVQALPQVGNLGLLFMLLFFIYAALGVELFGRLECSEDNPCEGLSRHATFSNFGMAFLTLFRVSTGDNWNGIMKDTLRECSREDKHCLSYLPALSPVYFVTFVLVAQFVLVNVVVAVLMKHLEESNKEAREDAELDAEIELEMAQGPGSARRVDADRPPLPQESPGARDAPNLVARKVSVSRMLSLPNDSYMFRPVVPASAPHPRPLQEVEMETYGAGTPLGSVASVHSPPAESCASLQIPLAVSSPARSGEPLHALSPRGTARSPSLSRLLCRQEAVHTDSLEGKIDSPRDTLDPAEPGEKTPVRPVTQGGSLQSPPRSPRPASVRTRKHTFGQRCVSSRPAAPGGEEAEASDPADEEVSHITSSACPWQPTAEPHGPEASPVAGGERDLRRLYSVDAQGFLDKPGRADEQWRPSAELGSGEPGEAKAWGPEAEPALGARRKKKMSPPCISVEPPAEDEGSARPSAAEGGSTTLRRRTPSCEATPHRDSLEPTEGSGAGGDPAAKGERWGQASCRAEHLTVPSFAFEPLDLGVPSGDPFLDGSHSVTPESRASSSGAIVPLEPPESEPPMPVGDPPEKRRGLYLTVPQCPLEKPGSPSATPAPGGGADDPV
Hexokinase, sequence (Q38C41 whole entry): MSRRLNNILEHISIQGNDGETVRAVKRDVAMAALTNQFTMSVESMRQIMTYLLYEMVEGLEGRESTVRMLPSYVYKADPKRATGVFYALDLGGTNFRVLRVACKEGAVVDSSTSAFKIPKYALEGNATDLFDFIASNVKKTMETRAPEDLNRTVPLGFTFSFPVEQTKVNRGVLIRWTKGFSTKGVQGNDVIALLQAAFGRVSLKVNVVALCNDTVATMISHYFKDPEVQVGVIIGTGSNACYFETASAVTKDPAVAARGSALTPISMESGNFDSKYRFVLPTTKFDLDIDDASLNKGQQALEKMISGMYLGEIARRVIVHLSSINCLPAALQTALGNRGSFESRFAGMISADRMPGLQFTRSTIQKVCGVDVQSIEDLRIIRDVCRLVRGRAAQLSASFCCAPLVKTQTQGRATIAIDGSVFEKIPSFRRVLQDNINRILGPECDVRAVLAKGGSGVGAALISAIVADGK
Melanin-concentrating hormone receptor 1, sequence (Q99705 whole entry): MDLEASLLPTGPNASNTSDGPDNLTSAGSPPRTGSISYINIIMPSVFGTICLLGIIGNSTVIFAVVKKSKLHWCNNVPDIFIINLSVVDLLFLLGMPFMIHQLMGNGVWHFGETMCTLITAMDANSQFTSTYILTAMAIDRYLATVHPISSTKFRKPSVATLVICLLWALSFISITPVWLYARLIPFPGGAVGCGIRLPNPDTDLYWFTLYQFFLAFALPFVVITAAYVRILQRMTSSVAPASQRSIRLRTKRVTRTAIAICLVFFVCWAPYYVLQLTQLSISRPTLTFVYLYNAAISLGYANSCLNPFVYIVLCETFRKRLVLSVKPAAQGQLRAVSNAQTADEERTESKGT

In the case of `O=C(COc1ccccc1Cl)Nc1nnc(-c2ccc3ccccc3c2)o1`, the EC50 in assay [1] is 4.8 µM (active).

On to `Cc1ccccc1N1Cc2ccccc2C1=O`, for which the IC50 at Hexokinase is > 25 µM (inactive).

Take `COc1ccc(N2CCN(CCCNC(=O)Cn3c(=O)c4cccn4c4c(C)ccnc43)CC2)cc1`: the IC50 (on Mu-type opioid receptor; in assay [2]) was > 32 µM (inactive) in each case.

With `Cc1cccc(CN2CCCCC2C(=O)N2CCN(c3ccc([N+](=O)[O-])cc3)CC2)c1` (configuration not stated), the IC50 in assay [3] is 10 µM (active); in assay [4] it was 6.1 µM (active).

As to `Nc1[nH]n(-c2ccccc2)c(=O)c1N=Nc1ccc2c(c1)OCCO2`, on Nonstructural protein 1, the IC50 was 28.8 µM (active).
